Laboratory results published in patent US12421212B2, “Substituted benzenecarboxamides as IL-17A modulators” (DiCE Alpha, Inc., priority 2019, dated 2025).

Biological target: T1, IL-17A/A (Homo sapiens, UniProt Q16552)
T1 construct: purchased Genscript Z03228
T1 sequence (Q16552 24-155): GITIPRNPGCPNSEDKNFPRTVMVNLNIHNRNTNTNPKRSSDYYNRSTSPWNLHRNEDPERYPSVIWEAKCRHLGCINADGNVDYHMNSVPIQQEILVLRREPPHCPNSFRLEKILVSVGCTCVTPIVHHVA
Experiment: IL-17A/A HEK-Blue Cell Assay
Assay type: cell-based
Conditions: HEK-Blue IL-17A reporter cell line, SEAP readout at A630, 20 hours incubation with IL-17A/A, top concentration 10 uM, 1 uM or 0.3 uM; for IC50: read-out: IL-17A/A inhibition (pIC50) (converted)

SMILES | IC50 | IL-17A/A inhibition (pIC50)
CCC(=O)N[C@@H](C(=O)N1CCN(C)CC1)[C@@H](C)c1ccc(NC(=O)[C@@H](NC(=O)c2ccnn2CC2CC2)C2CCCCCC2)c(F)c1 [Compound 271] | < 10 nM | –
CCC(=O)N[C@@H](C(=O)N1CCN(C)CC1)[C@@H](C)c1ccc(NC(=O)[C@@H](NC(=O)c2ccnn2C2CCCC2)C2CCCCCC2)c(F)c1 [Compound 273] | < 10 nM | –
CCC(=O)N[C@@H](C(=O)N1CCN(C)CC1)[C@@H](C)c1ccc(NC(=O)[C@@H](NC(=O)c2coc3c2COC3)[C@H]2CC[C@H](C)CC2)c(F)c1 [Compound 277] | < 10 nM | –
CCC(=O)N[C@@H](C(=O)N1CCN(C)CC1)[C@@H](C)c1ccc(NC(=O)[C@@H](NC(=O)c2nonc2CC)[C@H]2CC[C@H](C)CC2)c(F)c1 [Compound 278] | < 10 nM | –
CCC(=O)N[C@@H](C(=O)N1CCN(C)CC1)[C@@H](C)c1ccc(NC(=O)[C@@H](NC(=O)c2conc2C2CC2)[C@H]2CC[C@H](C)CC2)c(F)c1 [Compound 279] | 10 to 100 nM | –
CCC(=O)N[C@@H](C(=O)N1CCN(C)CC1)[C@@H](C)c1ccc(NC(=O)[C@@H](NC(=O)c2cccn2CC)[C@H]2CC[C@H](C)CC2)c(F)c1 [Compound 280] | 10 to 100 nM | –
CCC(=O)N[C@@H](C(=O)N1CCN(C)CC1)[C@@H](C)c1ccc(NC(=O)[C@@H](NC(=O)c2cccn2CC2CC2)[C@H]2CC[C@H](C)CC2)c(F)c1 [Compound 283] | – | A (compounds having a pIC50 of greater than or equal 8 as A)
CCC(=O)N[C@@H](C(=O)N1CCN(C)CC1)[C@@H](C)c1ccc(NC(=O)[C@@H](NC(=O)c2conc2C(C)C)[C@H]2CC[C@H](C)CC2)c(F)c1 [Compound 284] | < 10 nM | –
CCC(=O)N[C@@H](C(=O)N1CCN(C)CC1)[C@@H](C)c1ccc(NC(=O)C(NC(=O)c2conc2CC)C2CCc3ccccc32)c(F)c1 (stereo partly shown) [Compound 287] | < 10 nM | –
CCC(=O)N[C@@H](C(=O)N1CCN(C)CC1)[C@@H](C)c1ccc(NC(=O)C(NC(=O)c2ccnn2CC)[C@H](C)c2ccccc2)c(F)c1 (stereo partly shown) [Compound 288] | 10 to 100 nM | –
CCC(=O)N[C@@H](C(=O)N1CCN(C)CC1)[C@@H](C)c1ccc(NC(=O)C(NC(=O)c2ccnn2CC)[C@@H](C)c2ccccc2)c(F)c1 (stereo partly shown) [Compound 289] | 10 to 100 nM | –
CCC(=O)N[C@@H](C(=O)N1CCN(C)CC1)[C@@H](C)c1ccc(NC(=O)C(NC(=O)c2ccnn2C(C)C)[C@@H](C)c2ccccc2)c(F)c1 (stereo partly shown) [Compound 291] | 10 to 100 nM | –
CCC(=O)N[C@@H](C(=O)N1CCN(C)CC1)[C@@H](C)c1ccc(NC(=O)C(NC(=O)c2ccnn2CC)C(CC)c2ccccc2)c(F)c1 (stereo partly shown) [Compound 293] | 10 to 100 nM | –
CCC(=O)N[C@@H](C(=O)N1CCN(C)CC1)[C@@H](C)c1ccc(NC(=O)[C@@H](NC(=O)c2ccnn2CC)C2CCC(C)(C)CC2)c(F)c1 [Compound 296] | 10 to 100 nM | –
CCC(=O)N[C@@H](C(=O)N1CCN(C)CC1)[C@@H](C)c1ccc(NC(=O)[C@@H](NC(=O)c2ccnn2CC)C2CCCCCC2)cc1 [Compound 297] | 10 to 100 nM | –
CCC(=O)N[C@@H](C(=O)N1CCN(C)CC1)[C@@H](C)c1ccc(NC(=O)[C@@H](NC(=O)c2conc2CC)C2CCCCC2)cc1 [Compound 298] | 10 to 100 nM | –
CCC(=O)N[C@@H](C(=O)N1CCN(C)CC1)[C@@H](C)c1ccc(NC(=O)[C@@H](NC(=O)c2ccnn2CC)[C@H]2CC[C@H](C)CC2)cc1 [Compound 299] | 10 to 100 nM | –
CCn1nccc1C(=O)N[C@H](C(=O)Nc1ccc([C@H](C)[C@@H](NC(=O)c2cncs2)C(=O)N2CCN(C)CC2)cc1F)C1CCCCC1 [Compound 303] | 10 to 100 nM | –
CCn1nccc1C(=O)N[C@H](C(=O)Nc1ccc([C@H](C)[C@@H](NC(=O)c2cccs2)C(=O)N2CCN(C)CC2)cc1F)C1CCCCC1 [Compound 304] | 10 to 100 nM | –
CCn1nccc1C(=O)N[C@H](C(=O)Nc1ccc([C@H](C)[C@@H](NC(=O)c2cnsc2)C(=O)N2CCN(C)CC2)cc1F)C1CCCCC1 [Compound 305] | 10 to 100 nM | –
CCn1nccc1C(=O)N[C@H](C(=O)Nc1ccc([C@H](C)[C@@H](NC(=O)c2cnnn2C)C(=O)N2CCN(C)CC2)cc1F)C1CCCCC1 [Compound 306] | 10 to 100 nM | –
CCn1nccc1C(=O)N[C@H](C(=O)Nc1ccc([C@H](C)[C@@H](NC(=O)CC2CC2)C(=O)N2CCN(C)CC2)cc1F)C1CCCCC1 [Compound 307] | 10 to 100 nM | –
CCn1nccc1C(=O)N[C@H](C(=O)Nc1ccc([C@H](C)[C@@H](NC(=O)c2cnns2)C(=O)N2CCN(C)CC2)cc1F)C1CCCCC1 [Compound 310] | 10 to 100 nM | –
CC(C)n1nccc1C(=O)N[C@H](C(=O)Nc1ccc([C@H](C)[C@@H](NC(=O)c2cnns2)C(=O)N2CCN(C)CC2)cc1F)C1CCCCC1 [Compound 312] | < 10 nM | –
CCn1nccc1C(=O)N[C@H](C(=O)Nc1ccc([C@H](C)[C@@H](NS(=O)(=O)CC)C(=O)N2CCN(C)CC2)cc1F)C1CCCCC1 [Compound 313] | 10 to 100 nM | –
CCn1nccc1C(=O)N[C@H](C(=O)Nc1ccc([C@H](C)[C@@H](NC(=O)NC2CC2)C(=O)N2CCN(C)CC2)cc1F)C1CCCCC1 [Compound 314] | 10 to 100 nM | –
CC(C)n1nccc1C(=O)N[C@H](C(=O)Nc1ccc([C@H](C)[C@@H](NC(=O)NC2CC2)C(=O)N2CCNCC2)cc1F)C1CCCCC1 [Compound 315] | – | A (compounds having a pIC50 of greater than or equal 8 as A)
CCC(=O)N[C@@H](C(=O)N1CCN(C)CC1)[C@@H](CC)c1ccc(NC(=O)[C@@H](NC(=O)c2ccnn2CC)C2CCCCCC2)cc1 [Compound 319] | 10 to 100 nM | –
CCn1nccc1C(=O)N[C@H](C(=O)Nc1ccc(C[C@@H](Nc2ncnc3cnccc23)C(=O)N2CCN(C)CC2)cc1F)C1CCCCC1 [Compound 320] | 10 to 100 nM | –

Further lines, with some results ahead:

IC50 | SMILES | IL-17A/A inhibition (pIC50)
< 10 nM | CCC(=O)N[C@@H](C(=O)N1CCN(C)CC1)[C@@H](C)c1ccc(NC(=O)[C@@H](NC(=O)c2ccoc2C(C)C)C2CCCCCC2)c(F)c1 [Compound 272] | –
< 10 nM | CCC(=O)N[C@@H](C(=O)N1CCN(C)CC1)[C@@H](C)c1ccc(NC(=O)[C@@H](NC(=O)c2cccn2C(C)C)C2CCCCCC2)c(F)c1 [Compound 274] | –
< 10 nM | CCC(=O)N[C@@H](C(=O)N1CCN(C)CC1)[C@@H](C)c1ccc(NC(=O)[C@@H](NC(=O)c2cccn2CC)C2CCCCCC2)c(F)c1 [Compound 275] | –
10 to 100 nM | CCC(=O)N[C@@H](C(=O)N1CCN(C)CC1)[C@@H](C)c1ccc(NC(=O)[C@@H](NC(=O)C(F)(F)c2csc(C)c2)[C@H]2CC[C@H](C)CC2)c(F)c1 [Compound 276] | –
10 to 100 nM | CCC(=O)N[C@@H](C(=O)N1CCN(C)CC1)[C@@H](C)c1ccc(NC(=O)[C@@H](NC(=O)C(F)(F)c2cncc(OC)c2)[C@H]2CC[C@H](C)CC2)c(F)c1 [Compound 281] | –
< 10 nM | CCC(=O)N[C@@H](C(=O)N1CCN(C)CC1)[C@@H](C)c1ccc(NC(=O)[C@@H](NC(=O)C(F)(F)c2cccc(C#N)c2)[C@H]2CC[C@H](C)CC2)c(F)c1 [Compound 282] | –
10 to 100 nM | CCC(=O)N[C@@H](C(=O)N1CCN(C)CC1)[C@@H](C)c1ccc(NC(=O)[C@@H](NC(=O)C(F)(F)c2ccc(OC)nc2)[C@H]2CC[C@H](C(F)(F)F)CC2)c(F)c1 [Compound 285] | –
10 to 100 nM | CCC(=O)N[C@@H](C(=O)N1CCN(C)CC1)[C@@H](C)c1ccc(NC(=O)[C@@H](NC(=O)C(F)(F)c2cccc(C#N)c2)[C@H]2CC[C@H](C(F)(F)F)CC2)c(F)c1 [Compound 286] | –
< 10 nM | CCC(=O)N[C@@H](C(=O)N1CCN(C)CC1)[C@@H](C)c1ccc(NC(=O)C(NC(=O)C(F)(F)c2cccc(C#N)c2)[C@@H](C)c2ccccc2)c(F)c1 (stereo partly shown) [Compound 290] | –
10 to 100 nM | CCC(=O)N[C@@H](C(=O)N1CCN(C)CC1)[C@@H](C)c1ccc(NC(=O)C(NC(=O)C(F)(F)c2cccc(C#N)c2)C2CCCC2)c(F)c1 (stereo partly shown) [Compound 292] | –
< 10 nM | CCC(=O)N[C@@H](C(=O)N1CCN(C)CC1)[C@@H](C)c1ccc(NC(=O)[C@@H](NC(=O)C(F)(F)c2ccc(OC)nc2)[C@H]2CC[C@H](C)CC2)c(F)c1 [Compound 295] | –
10 to 100 nM | CCC(=O)N[C@@H](C(=O)N1CCN(C)CC1)[C@@H](C)c1ccc(NC(=O)[C@@H](NC(=O)C(F)(F)c2cccc(C#N)c2)C2CCCCC2)cc1 [Compound 300] | –
< 10 nM | C[C@@H](c1ccc(NC(=O)[C@@H](NC(=O)C(F)(F)c2cccc(C#N)c2)C2CCCCC2)cc1)[C@@H](NC(=O)c1cnns1)C(=O)N1CCN(C)CC1 [Compound 301] | –
10 to 100 nM | CCC(=O)N[C@H](Cc1ccc(NC(=O)[C@@H](NC(=O)C(F)(F)c2cccc(C#N)c2)C2CCCCC2)c(F)c1)C(=O)N1CCN(C)CC1 [Compound 302] | –
< 10 nM | C[C@@H](c1ccc(NC(=O)[C@@H](NC(=O)C(F)(F)c2cccc(C#N)c2)C2CCCCC2)c(F)c1)[C@@H](NC(=O)CC1CC1)C(=O)N1CCN(C)CC1 [Compound 308] | –
10 to 100 nM | COc1cncc(C(F)(F)C(=O)N[C@H](C(=O)Nc2ccc([C@H](C)[C@@H](NC(=O)c3cnns3)C(=O)N3CCN(C)CC3)cc2F)C2CCCCC2)c1 [Compound 309] | –
< 10 nM | C[C@@H](c1ccc(NC(=O)[C@@H](NC(=O)C(F)(F)c2cccc(C#N)c2)C2CCCCC2)c(F)c1)[C@@H](NC(=O)c1cnns1)C(=O)N1CCN(C)CC1 [Compound 311] | –
< 10 nM | C[C@@H](c1ccc(NC(=O)[C@@H](NC(=O)C(F)(F)c2cccc(C#N)c2)C2CCCCC2)c(F)c1)[C@@H](NC(=O)NC1CC1)C(=O)N1CCN(C)CC1 [Compound 316] | –
10 to 100 nM | CNC(=O)N[C@@H](C(=O)N1CCN(C)CC1)[C@@H](C)c1ccc(NC(=O)[C@@H](NC(=O)C(F)(F)c2cccc(C#N)c2)C2CCCCC2)c(F)c1 [Compound 317] | –
10 to 100 nM | C[C@@H](c1ccc(NC(=O)[C@@H](NC(=O)C(F)(F)c2cccc(C#N)c2)C2CCCCC2)c(F)c1)[C@@H](NC(=O)NC1CCC1)C(=O)N1CCN(C)CC1 [Compound 318] | –
